{"source": "patent US5846562A", "about": "“Oral composition of fumagillol derivative” (Takeda Chemical Industries, Ltd., priority 1996, dated 1998)", "key": {"[1]": {"tested_on": "Colon 26 cancer cells", "assay": "Colon 26 tumor growth inhibition in tumor-bearing mice, oral", "format": "in vivo, female BALB/c mice", "settings": "solution in Miglyol 812", "procedure": "(§1) Tumor-bearing mice were provided by transplanting 1×10^5 Colon 26 cancer cells/animal in the flank of female 10-week-old BALB/c mice (Charles River Japan). […] On day 21, the tumor mass at the transplantation site was excised and weighed, and the tumor weight ratio relative to the untreated control group (T/C) was calculated. In addition, the tumor colonies metastasized to the lungs were counted and the median value in each group was compared with that in the untreated control group (T/C)."}, "[2]": {"tested_on": "Colon 26 cancer cells", "assay": "Lung metastasis (tumor colonies) in Colon 26 tumor-bearing mice, oral", "format": "in vivo, female BALB/c mice", "settings": "for T/C (median number of tumor colonies metastasized to the lungs vs untreated control): oral once daily day 7 to day 20, sample solution in Miglyol 812, day 21", "procedure": "as §1"}, "[3]": {"assay": "Plasma concentration of metabolite after oral compound A with or without famotidine pretreatment", "format": "in vivo, SD rats", "settings": "famotidine-treated group, intragastric pH elevated, vs no famotidine", "procedure": "Famotidine (Sigma) was administered subcutaneously to SD rats fasted overnight (dose; 10 mg/kg). […] Blood was serially drawn from the caudal vein to determine the plasma concentration of metabolites."}, "[4]": {"settings": "rat, in vivo, po, 100 mg/kg", "description": "Blood was collected from the caudal vein periodicaly to determine the plasma concentration of metabolite."}}, "note": "Like-named read-outs stand apart in the source and are kept apart here."}
{"smiles": "CO[C@@H]1[C@H](OC(=O)NC(=O)CCl)CC[C@]2(CO2)[C@H]1[C@@]1(C)O[C@@H]1CC=C(C)C", "note": "[Compound A, 6-O-(N-chloroacetylcarbamoyl)fumagillol]", "values": [{"measurement": "effect on tumor growth inhibition", "setting": "[1]", "result": "potent and dose-dependent effect"}, {"measurement": "T/C (median number of tumor colonies metastasized to the lungs vs untreated control)", "setting": "[2]; 25 mg/kg", "result": 71, "unit": "%"}, {"measurement": "T/C (median number of tumor colonies metastasized to the lungs vs untreated control)", "setting": "[2]; 50 mg/kg", "result": 52, "unit": "%"}, {"measurement": "effect on tumor metastasis inhibition", "setting": "[2]; oral, solution in Miglyol 812", "result": "potent and dose-dependent effect"}, {"measurement": "absorption", "setting": "[3]", "result": "marked increase in absorption"}, {"measurement": "Plasma concentration of metabolite", "setting": "[4]; 5 min", "result": "15.7 ± 1.6", "unit": "ng/mL"}, {"measurement": "Plasma concentration of metabolite", "setting": "[4]; 10 min", "result": "17.3 ± 4.9", "unit": "ng/mL"}, {"measurement": "Plasma concentration of metabolite", "setting": "[4]; 30 min", "result": "5.8 ± 3.6", "unit": "ng/mL"}, {"measurement": "Plasma concentration of metabolite", "setting": "[4]; 60 min", "result": 0, "unit": "ng/mL"}]}
